Data published in PMC10860144, “Exploring the Dispersion and Electrostatic Components in Arene–Arene Interactions between Ligands and G4 DNA to Develop G4-Ligands” (Journal of Medicinal Chemistry, 2024).

Legend:
[1] = molecular target: c-MYC Pu22 G4 DNA; assay: Microscale thermophoresis (MST), c-MYC Pu22 G4 DNA; type: binding, human; settings: Cy5-labeled c-MYC Pu22 G4 DNA 25 nM; pH 7.4, 100 mM KCl; read-out: apparent Kd (MST)
Procedure: To evaluate the apparent binding affinities (Kd) for the compound series, we next used microscale thermophoresis (MST) with fluorescently labeled c-MYC Pu22 G4 DNA (Table S1). Overall, the measured MST binding results for compounds 2–11 corresponded well with the results from the FRET assay (Figures 2B and S3).
5′-Cy5 labeled G4 DNAs for this study were purchased from Eurofins Genomics. Stock solutions were prepared in water at 100 μM concentration. The sequences used are listed in Supporting Information Table S1. The G4 DNA sequences were folded in KCl buffer (10 mM phosphate, 100 mM KCl, pH 7.4) by heating at 95 °C for 5 min and then cooling to room temperature. All the experiments were performed in 10 mM phosphate pH 7.4, 100 mM KCl, and 0.05% Tween20. The labeled DNA concentration is held constant at 25 nM, and ligand concentration is varied depending on ligands Kd (16 1:3 dilutions). The samples were loaded into standard MST graded glass capillaries and initial fluorescence intensity of the capillary was measured using Monolith NT.115 (Nano Temper, Germany) with 20% LED power. The change in fluorescence with ligand’s concentrations were plotted in Excel and fitted through nonlinear equation to obtain the binding constants. […]
Microscale Thermophoresis (MST)
5'- Cy5 labelled G4 DNAs for this study were purchased from Eurofins Genomics. Stock solutions were prepared in water at […] concentration. The sequences used are listed in supplementary Table S1. The G4 DNA sequences were folded in KCl buffer (10 mM phosphate, 100 mM KCl, pH 7.4) by heating at 95 °C for 5 min and then cooling to room temperature. All the experiments were performed in 10 mM phosphate pH 7.4, 100 mM KCl, 0.05% Tween20. The labelled DNA concentration is held constant at 25 nM and ligand concentration is varied depending on ligands Kd (sixteen 1:3 dilutions). The samples were loaded into standard MST graded glass capillaries and initial fluorescence intensity of the capillary were measured using Monolith NT.115 (Nano Temper, Germany) with 20% LED power. The change in fluorescence with ligand's concentrations were plotted in Excel and fitted through non-linear equation to obtain the binding constants.
(1 picture or pasted object on this page, not shown here)

[2] = molecular target: Pu24T c-MYC G4 structure; assay: Kd for binding to the Pu24T c-MYC G4 structure (supplementary CSV); parameters: species or system human
Procedure: 5′-Cy5 labeled G4 DNAs for this study were purchased from Eurofins Genomics. Stock solutions were prepared in water at 100 μM concentration. The sequences used are listed in Supporting Information Table S1. The G4 DNA sequences were folded in KCl buffer (10 mM phosphate, 100 mM KCl, pH 7.4) by heating at 95 °C for 5 min and then cooling to room temperature. All the experiments were performed in 10 mM phosphate pH 7.4, 100 mM KCl, and 0.05% Tween20. The labeled DNA concentration is held constant at 25 nM, and ligand concentration is varied depending on ligands Kd (16 1:3 dilutions). The samples were loaded into standard MST graded glass capillaries and initial fluorescence intensity of the capillary was measured using Monolith NT.115 (Nano Temper, Germany) with 20% LED power. The change in fluorescence with ligand’s concentrations were plotted in Excel and fitted through nonlinear equation to obtain the binding constants.
The Supporting Information is available free of charge at https://pubs.acs.org/doi/10.1021/acs.jmedchem.3c02127. • Experimental procedures and data; assay data, computational results, and all cell data; NMR (^1H and ^13C) spectra for all compounds (with the exception of a few intermediates); and HPLC UV traces for the final compounds (PDF) • Molecular formula strings and Kd values for binding to the Pu24T c-MYC G4 structure (CSV)

[3] = logD at pH 7.4; type: physicochemical
Procedure: (§1) Physicochemical properties
(§2) The Physicochemical profiling (LogD, Solubility, Caco-2 cell permeability) was performed as previously
(§3) described.8 Cell viability was performed as described below.
(§4) Table S2. Pharmacokinetic Properties
(§5) Compound Structure logD, Solubility, Rat hepsa Human mics b

[4] = Intrinsic clearance in rat hepatocytes; type: in vitro ADME
Procedure: (§6) All compounds (2–11, 25–29) were screened for their logD and solubility at pH 7.4 and for their intrinsic clearance in rat hepatocytes and human microsomes (Table S2). […] Replacing the basic amine side chain to a methyl substituent in the quinazolines (25–29) still retained good solubility (134 to over 1000 μM) but increased clearance in both rat hepatocytes and human microsomes. The logD was low for compounds with a basic amine side chain (2–11) and increased slightly when the amine was replaced with a methyl (25–29). As expected, additional substituents also affected the logD with the chloro-substituents increasing logD the most.
(§7) a Intrinsic clearance in rat hepatocytes ((μL/min)/10^6 cells).b Intrinsic clearance in human microsomes (μL/min/mg). […]

[5] = Intrinsic clearance in human microsomes; type: in vitro ADME; settings: read-out: Human mics: intrinsic clearance in human microsomes
Procedure: as §6, §7

[6] = tested on: c-MYC Pu22 G4 DNA; assay: FRET melting assay, c-MYC Pu22 G4 DNA; type: binding, human; settings: c-MYC Pu22 G4 DNA; 5-40 equiv
Text: The synthesized compounds (2–11) were first analyzed using a Förster resonance energy transfer (FRET) assay (Figure 2A). This assay measures the compounds’ ability to affect the thermal stability of fluorescently labeled DNA, in this case, the c-MYC Pu22 G4 DNA (Table S1). […] The addition of one methyl group to the quinazoline core (3) provides almost twice as strong thermal stability compared to 2. The addition of a second methyl group (4) further increased stabilization, albeit modestly (by 0.5 °C). This slight increase between 3 and 4 could stem from the suboptimal positioning of the added methyl substituent in relation to the guanines on the G4 surface, compared to other positions on the quinazoline ring. […] Furthermore, the methyl-substituted (4) and the methoxy-substituted (6) display a similar G4 stabilization despite the strong electrostatic character of the methoxy substituent compared to the neutral methyl group, which further supports that these interactions are dispersion-driven. This conclusion is further supported by the fact that the replacement of the methoxy group in 6 with chlorine in 7 results in a very similar stabilization as 3, 4, and 6.
Synthetic labeled oligonucleotides for the FRET study were purchased from Eurofins Genomics. Stock solutions were prepared in MQ-water at 100 μM concentration. The sequences used are listed in Supporting Information Table S1. All the oligonucleotides except Pu22 were prefolded in 10 mM lithium cacodylate buffer (pH 7.4), with 10 mM KCl and 90 mM LiCl by heating for 10 min at 95 °C and then cooling in fridge for at least 1 h. Pu22 was folded in 10 mM lithium cacodylate buffer (pH 7.4), with 2 mM KCl and 98 mM LiCl.
The FRET occurs between two dyes (5′-FAM as donor and 3′-TAMRA as acceptor) linked at both extremities of a DNA oligonucleotide. When the oligonucleotides are folded into G4 structures, the donor and acceptor are in proximity, which results in an energy transfer from the donor to the acceptor. This process can be detected by a reduction in the fluorescence emission of the donor. Fluorescence emission of the donor is recovered when the temperature increment triggers the thermal denaturation of the G4 structure. The experiments were performed in a Bio-Rad CFX96 real-time PCR device at temperatures from 10 to 95 °C at 1.5 °C/m heating rate using a 492 nm excitation wavelength and a 516 nm detection wavelength in 96-well plates. […] The stabilization (ΔTm) is calculated from comparison of Tm of the fluorescently labeled oligonucleotide in the presence or absence of the ligand. […]
The fluorescence resonance energy transfer (FRET) occurs between two dyes (5'-FAM as donor and 3'- TAMRA as acceptor) linked at both extremities of a DNA oligonucleotide. […]

[7] = Solubility at pH 7.4; type: physicochemical
Procedure: as §1, §2, §3, §4, §5

SMILES: Cc1cc(NCCCN(C)C)nc(Nc2cnc3ccccc3n2)n1 [Compound 8, N4-(3-(Dimethylamino)propyl)-6-methyl-N2-(quinoxalin-2-yl)pyrimidine-2,4-diamine]
- Kd [1]: > 10 µM
- Kd [2]: > 10 µM
- logD [3]: 1.4
- Rat heps: intrinsic clearance in rat hepatocytes [4]: 38 (μL/min)/106 cells
- microsomal CLint [5]: 8 µL/min/mg
- ability to stabilize the G4 structure (in words) [6]: almost no ability to stabilize the G4 structure
- solubility [7]: > 1000 µM
